What was measured:
golden hamsters = conditions: King et al. 2001; effective anxiolytics at doses of 1 μg/kg and above; cited from earlier work
Wistar rats [1] = conditions: rat, literature validation of the method; cited from earlier work
BALBc mice = experiment: radial arm maze, learning and memory; format: in vivo, mouse; conditions: intra-peritoneal 2.5 ng, 250 ng, 25 μg/kg
Source text: The radial arm maze is one of the most commonly used methods for testing spatial learning and memory in rodents. Developed by Olton and co-workers (Olton, D. S., Samuelson, R. J. (1976) J. Experimental Psychology, 2: 97-115), the maze provides the simultaneous choice of several alternative paths for the test subject. Animals must learn which locations provide food (place learning) using visuospatial cues. Animal care. Male BALBc mice weighing 21-23 gm were housed individually in a normal 12:12 light-dark cycle (light on at 0600 hr) and provide food and water ad libitum. The method described below was reported by Crusio et al., (1987) Brain Research, 425: 182-185. The radial arm maze consisted of a central platform and eight arms made of transparent Plexiglas. The central part measured 22 cm in diameter. The closed arms were 25 cm long, 6 cm high and 6 cm wide. Several fresh food pellets were deposited beyond the end of each arm behind a perforated wall. This arrangement served to prevent the animals from selecting a baited arm by smelling the presence or absence of a reward. […] Entry to an arm was counted when the mouse reached the perforated wall. […] The number of errors was recorded for each day of training. […] Dose response effects were assessed by means of a repeated measured two-way ANOVA followed by Bonferroni's post hoc test.

[2] = system: extracellular neurotransmitter levels in the area of the nucleus accumbens; experiment: microdialysis of nucleus accumbens, electrochemical detection of metabolites; format: in vivo, Sprague Dawley rats; conditions: rats, intra-peritoneal 10 ng to 100 μg/kg, dialysate 15-75 minutes post-treatment
Experimental: To test this hypothesis, extracellular neurotransmitter levels in the area of the nucleus accumbens were assessed with microdialysis following Δ^3-cefazolin sulfoxide treatment. The accumbens is part of the limbic forebrain best know for its association with the pathophysiology of schizophrenia, conditioned reinforcement and drug addiction but also thought to be involved in sensitization to early life trauma leading to the anxiety disorder PTSD or post traumatic stress disorder (Charney and Bremner (1999) The neurobiology of anxiety disorder. In: NEUROBIOLOGY OF MENTAL ILLNESS (Cahrney, D S, et al eds.), Oxford University Press, New York, pgs 494-517).
Method. Twenty-four male Sprague Dawley rats were anesthetized with sodium pentobarbital (50 mg/kg) and implanted with a unilateral microdialysis guide cannula aimed at the nucleus accumbens. Animals were divided into six groups of four animals each and treated with a range of cefazolin doses (saline vehicle, 10 ng, 100 ng, 1 μg, 10 μg, 100 μg/kg) (FIGS. 6a-c). Two days after recovery from surgery a microdialysis probe (2 mm) was lowered to the area and connected to an infusion pump through Tygon tubing. The dialysate was artificial CSF at pH 7.4 delivered at a flow rate of 1.8 μl/min. The first 30 minutes of dialysate was discarded. Thereafter, samples were collected at 15 minute intervals 45 minutes prior to and 75 minutes following intra-peritoneal administration of Δ^3-cefazolin sulfoxide. Samples were collected into microfuge tubes containing 5 μl of 0.16 N perchloric acid to stabilize catecholamines. At the end of the study, animals were sacrificed and the brains prepared for histology to verify the site of the microdialysis probe.
The levels of dopamine metabolites DOPAC (FIG. 6a) and HVA (FIG. 6b) and serotonin metabolite HIAA (FIG. 6c) were assessed by electrochemical detection. […] Measures from each of the four remaining samples collected between 15-75 minutes post-treatment were analyzed. […] Mean values were analyzed with a one-way ANOVA followed by Bonferroni's post hoc test.

Wistar rats [3] = experiment: elevated plus-maze; format: in vivo, rat
Source text: The elevated plus-maze was developed for the assessment of anxiolytic and anxiogenic drug effects in the rat (Pellow et al., (1985) Journal of Neuroscience Methods 14: 149-167). The method has been validated behaviorally, physiologically, and pharmacologically. The plus-maze has two open arms and two enclosed arms. […] Conversely, anxiogenic compounds such as yohimbin or amphetamines reduce open arm entries and time spent in the open arms.
Method. Male Wistar rats weighing 250-300 g were group housed in a normal 12:12 light-dark cycle light on at 0800 hour and provided food and water ad libitum. The plus-maze consisted of two open arms, 50×10 cm, and two enclosed arms 50×10×40 cm with an open roof, arranged such that the two open arms were opposite to each other. The maze was elevated to a height of 50 cm. Four groups of five animals each were tested in the plus-maze 90 minutes following oral gavage of either vehicle, or 100 ng/kg, 10 μg/kg, or 1 mg/kg of delta-2-cefazolin-1-sulfoxide (Δ^2-cefazolin sulfoxide). At the start of the experiment the animal was place in the center of the plus maze facing the closed arm. Over a 3 minute observation period, animals were scored for the latency to enter the closed arm, time spent in the closed arm, and the number of open arm entries following the first occupation of the closed arm.

[4] = system: Syrian golden hamsters (Mesocricetus auratus); experiment: resident/intruder model of offensive aggression (serenic activity); format: in vivo
Source text: Agonistic behavior can be classified as either offensive or defensive aggression (Blanchard, R. J., Blanchard, D. C. (1977) Physiology and Behavior, 1, 197-224; Adams, D. B. (1979) The Behavioral Brain Sciences, 2, 201-241; Albert, D. J. and Walsh, M. L. (1984) Neuroscience and Behavioral Reviews, 8, 5-24). Offensive aggression is characterized by the aggressor initiating an attack on an opponent, while defensive aggression lacks active approach. Both types of aggression have their own unique neurobehavioral systems. The stimuli that elicit offensive and defense attacks are different, as are the sequences of behaviors that accompany each agonistic response. […] Offensive aggression is easily studied using male golden hamsters tested in a resident/intruder paradigm, an established model of offensive aggression ([…]. (1988) Physiology and Behavior, 44, 235-239). Placing an unfamiliar male hamster into the home cage of another male hamster elicits a well-defined sequence of agonistic behaviors from the resident that includes offensive aggression. Animal Care. Male Syrian golden hamsters (Mesocricetus auratus) (140-150 g) obtained from Harlan Sprague-Dawley Laboratories (Indianapolis, Ind.) were housed individually in Plexiglas cages (24 cm×24 cm×20 cm), maintained on a reverse light:dark cycle ([…]:10D; lights on at 19:00 hr) and provided food and water ad libitum. Animals were acclimated to the reverse light:dark cycle for at least two weeks before testing. All behavioral tests were conducted during the dark phase of the circadian cycle. Behavioral Measures and Analysis. Hamsters are nocturnal and as such behavioral tests were performed during the first four hours of the dark phase under dim red illumination. The resident was scored for offensive aggression, e.g., latency to bite the intruder, total contact time with the intruder, the total number of bites, and flank marking, over a 10 minute test period ([…]. (1988) Physiology and Behavior, 44, 235-239). Flank marking is a form of olfactory communication in which a hamster arches its back and rubs pheromone producing flank glands against objects in the environment (Johnston, R. E. (1985) Communication, In: THE HAMSTER REPRODUCTION AND BEHAVIOR. Ed Siegel, H. I. Plenum Press, New York, pp 121-154). […] Parametric data, i.e., latencies and contact time, were analyzed with a one-way ANOVA followed by Newman-Keuls post hoc tests. Non-parametric data, i.e., number of bites and flank marks, were analyzed with Kruskal-Wallis tests followed by Mann-Whitney U tests to determine differences between groups. Method. […] Ninety min after oral gavage an intruder was placed into the home cage and the resident scored for offensive aggression. Following aggression testing, animals were screened for motor activity in an open field paradigm and sexual motivation (FIGS. 4a-b).

[5] = system: Syrian golden hamsters (Mesocricetus auratus); conditions: in vivo, po
Source text: Method. […] Ninety min after oral gavage an intruder was placed into the home cage and the resident scored for offensive aggression. Following aggression testing, animals were screened for motor activity in an open field paradigm and sexual motivation (FIGS. 4a-b).

Compound: O=C1CC2(CCCC2)CC(=O)N1CCCCN1CCN(c2ncccn2)CC1 [buspirone]
- effect on seed finding (golden hamsters): dramatically reduce

Compound: CNCCCN1c2ccccc2CCc2ccccc21 [desipramine]
- effect on seed finding (golden hamsters): ineffective

Compound: CN1C(=O)CN=C(c2ccccc2)c2cc(Cl)ccc21 [diazepam]
- number of entries into the open arms (Wistar rats [1]): significantly increase
- percentage of time spent in the open arms (Wistar rats [1]): significantly increase

Compound: CNCCC(Oc1ccc(C(F)(F)F)cc1)c1ccccc1 (centres unmarked) [fluoxetine]
- effect on seed finding (golden hamsters): dramatically reduce

Compound: COC(=O)[C@@H]1[C@H]2C[C@H]3c4[nH]c5ccccc5c4CCN3C[C@@H]2CC[C@@H]1O [yohimbine]
- effect on seed finding (golden hamsters): ineffective
- number of entries into the open arms (Wistar rats [1]): reduce
- percentage of time spent in the open arms (Wistar rats [1]): reduce

Compound: Cc1nnc(SCC2=C(C(=O)O)N3C(=O)[C@@H](NC(=O)Cn4cnnn4)[C@H]3[S+]([O-])C2)s1 (some centres unmarked) [Δ^3-cefazolin sulfoxide, cefazolin-1-sulfoxide]
- number of errors (BALBc mice; day five, vs vehicle): no significant difference
- number of errors (BALBc mice; testing days three and four, vs vehicle control (*p<0.05, **p<0.01) (FIG. 5)): significantly reduced
- DOPAC levels (dopamine metabolite) ([2]; pg/15 μl (FIG. 6a)): significant (*p<0.05; **p<0.01) dose-dependent increase
- HVA levels (dopamine metabolite) ([2]; pg/15 μl (FIG. 6b)): significant (*p<0.05; **p<0.01) dose-dependent increase
- HIAA levels (serotonin metabolite) ([2]; pg/15 μl (FIG. 6c)): significant (*p<0.05; **p<0.01) dose-dependent increase

Compound: delta-2-cefazolin-1-sulfoxide
- anxiolytic activity in the elevated plus-maze (Wistar rats [3]; given orally to rats): dose-dependent anxiolytic activity
- latency to enter the closed arm (Wistar rats [3]; rats, oral gavage 100 ng/kg, 10 μg/kg, 1 mg/kg, 90 min, 3 minute observation, vs vehicle (FIG. 2a)): increased
- time spent in the open arm (Wistar rats [3]; rats, oral gavage 100 ng/kg, 10 μg/kg, 1 mg/kg, 90 min, vs vehicle (FIG. 2b)): significantly increased (p<0.01)
- serenic activity, inhibiting offensive aggression ([4]; oral gavage): very effective serenic
- flank marking ([4]; oral gavage 100 ng/kg, 10 μg/kg, 1 mg/kg, 90 min, 10 minute test (FIG. 3d)): significantly increased
- latency to bite ([4]; oral gavage 100 ng/kg, 10 μg/kg, 1 mg/kg, 90 min, 10 minute test, p<0.01 (FIG. 3a)): significantly increased
- number of bites ([4]; oral gavage 100 ng/kg, 10 μg/kg, 1 mg/kg, 90 min, 10 minute test, p<0.01 (FIG. 3c)): decreased
- contact time ([4]; oral gavage, 90 min, 10 minute test, highest dose (1 mg/kg) (FIG. 3b)): significantly reduced at the highest dose
- motor activity (open field) [5]: no change
- sexual motivation [5]: no change

Source: US7833998B2, “Oral neurotherapeutic cephalosporin sulfoxide and sulfone-containing compositions” (Revaax Pharmaceuticals, LLC, priority 2003, dated 2010)
